The numbers were not newly measured in patent publication US6372198B1, “Dentifrice for the mineralization and remineralization of teeth” (priority 2000, dated 2002), which cites them from elsewhere.

Each structure is given as a SMILES string.

The test system of this data set is periodontal disease. The following applies: oral administration (pills, capsules, powders); certain clinical studies.

In the case of `COC1=C(OC)C(=O)C(C/C=C(\C)CC/C=C(\C)CC/C=C(\C)CC/C=C(\C)CC/C=C(\C)CC/C=C(\C)CC/C=C(\C)CC/C=C(\C)CC/C=C(\C)CCC=C(C)C)=C(C)C1=O` [coenzyme Q10], the “symptoms of periodontal disease, including inflammation, swelling, and bleeding of the gum tissues” value is on record as “alleviated the symptoms of periodontal disease”.
